Assays:
Format in all cases: cell-based, human
[1] = tested on: reticular or papillary fibroblasts; experiment: Compound screening on reticular or papillary fibroblasts, qPCR of 3 papillary and 3 reticular markers; settings: high=0.01% v/v, low=0.0001% v/v, 24 hrs; CCRL1, NTN1, PDPN, MGP, PPP1R14A, TGM2; FIG. 2
Method: The fibroblasts were isolated and cultured as described above (example 1).
12000 reticular or papillary fibroblasts were seeded in 12 well culture plates (Costar). The fibroblasts were cultured for 5 days until 90% of the surface area was covered. Two different concentrations (low/high) of compounds were applied for 24 hrs. Pictures were taken before and after application. No differences in morphology and were observed (data not shown). RNA was isolated as described in example 1.
qPCR analysis was performed using 3 papillary (CCRL1, NTN1 and PDPN) and 3 reticular (MGP, PPP1R14A and TGM2) markers, according to example 1. The expression was normalized using two reference genes (SND1 and EI24). The effect of verbascoside was determined by comparing the expression of the genes to the expression of vehicle treated fibroblasts.

papillary fibroblasts [2] = experiment: TGF-β1 treatment of monolayer papillary fibroblasts, marker expression by qPCR; settings: TGF-β1 2 or 10 ng/mL, 2 or 4 days
Method: cDNA was generated of 1 μg RNA using the iScript cDNA synthesis kit (BioRad, Veenendaal, The Netherlands) according to manufacturer's instructions. PCR reactions were based on the SYBR Green method (BioRad) and consisted of 2× Sybr Green Mastermix, 1 ng cDNA template and 500 nM of forward and reverse primers. The PCRs were run on the MyIQ system (BioRad). The PCR cycles were: 3,5 minutes at 95 C to activate the polymerase, 35 cycles of 20 sec 95 C and 40 sec 60 C, followed by the generation of a melt curve. Primers were checked before on dilution series of normal fibroblasts cDNA. References genes were analyzed with the GeNorm method (20). Expression analysis was performed with the BioRad Software (iQ5) and was based on the delta delta Ct method with the reference genes that were most stably expressed in the GeNorm analysis.
(§1) Monolayer cultures of papillary fibroblasts were treated with TGF-β1, 2 or 10 ng/mL, for 2 or 4 days. Then the expression of the reticular and papillary markers was measured by qPCR and by IHC staining on the cultures.

papillary fibroblasts [3] = experiment: TGF-β1 treatment of monolayer papillary fibroblasts, IHC staining and morphology; settings: TGF-β1 2 or 10 ng/mL, 2 or 4 days
Method: For IHC on monolayer cell cultures, fibroblasts were grown on glass slides until nearly confluent, washed in PBS and fixed with 4% formaldehyde. Staining was visualized by a secondary antibody with a fluorescent dye (Cy3). DAPI was used as counterstain.
as §1

Compound	effect on reticular/papillary marker gene signature (qPCR, vs vehicle treated fibroblasts) [1]	differentiation of papillary fibroblasts as measured by qPCR (papillary fibroblasts [2]; monolayer cell cultures)	expression of papillary markers (qPCR) (papillary fibroblasts [2]; data not shown)	expression of reticular markers (qPCR) (papillary fibroblasts [2]; data not shown)	myofibroblast differentiation: a-SMA expression (papillary fibroblasts [3])	myofibroblast differentiation: morphological changes (papillary fibroblasts [3])	papillary marker PDPN by IHC staining (papillary fibroblasts [3])	reticular marker TGM2 by IHC staining (papillary fibroblasts [3])
C[C@@H]1O[C@@H](O[C@@H]2[C@@H](O)[C@H](OCCc3ccc(O)c(O)c3)O[C@H](CO)[C@H]2OC(=O)/C=C/c2ccc(O)c(O)c2)[C@H](O)[C@H](O)[C@H]1O [Verbascoside]	able to alter the reticular signature into a papillary signature	–	–	–	–	–	–	–
TGF-β1: TGF-β1, can induce differentiation of fibroblasts to myofibroblasts	–	caused differentiation to reticular fibroblasts	decreased	increased	increased a-SMA expression	increase in cell size	loss of papillary marker PDPN	gain of reticular marker TGM2

Reference: US10837058B2, “Markers of papillary and reticular fibroblasts and uses thereof” (CHANEL PARFUMS BEAUTE, priority 2011, dated 2020)
